Patent US9624215B2, “Amine derivative or salt thereof” (TOYAMA CHEMICAL CO., LTD., priority 2012, dated 2017)

System: normal human neonatal foreskin epidermal keratinocytes (NHEK-F)
Test: Cell proliferation inhibition test
Format: cell-based
Details: Keratinocyte, 72 h, NHEK-F cells, three days incubation, ATPlite or CellTiterGlo, read-out: IC50 (concentration of the compound at which the cell count is reduced by 50%)
Protocol: 2×10^3 normal human neonatal foreskin epidermal keratinocytes (NHEK-F) (Kurabo, KK-4009) were suspended in 100 μL of Humedia-EG2 (Kurabo, KK-2150S) medium, plated in a 96-well plate and incubated overnight. The test compound was added on the following day and the cells were incubated for further three days. The cell count was determined using ATPlite (PerkinElmer, 6016739) or CellTiterGlo (Promega, G7573).
The inhibition rate was calculated from the following formula to determine the concentration of the compound at which the cell count is reduced by 50% (IC50). Inhibition rate (%)=100−(cell count in the presence of test compound/cell count in the absence of test compound)×100

Row | Compound | IC50
1 | O=C(O)c1cc(C2CC2)cnc1Nc1cccc2c1ccn2-c1ccccc1 [Example 433, 5-cyclopropyl-2-((1-phenyl-1H-indol-4-yl)amino)nicotinic acid] | ≤ 10 nM
2 | Cn1c(C(C)(C)C)cc2cc(Nc3ncc(C4CC4)cc3C(=O)O)ccc21 [Example 157, 2-((2-(tert-butyl)-1-methyl-1H-indol-5-yl)amino)-5-cyclopropylnicotinic acid] | 100 to 1000 nM
3 | O=C(O)c1cc(C2CC2)cnc1Nc1ccc2c(ccn2CCCC(F)(F)F)c1 [Example 616, 5-cyclopropyl-2-((1-(4,4,4-trifluorobutyl)-1H-indol-5-yl)amino)nicotinic acid] | 10 to 100 nM
4 | Cn1cc(-c2ccc(F)cc2)c2cc(Nc3ncc(C4CC4)cc3C(=O)O)ccc21 [Example 561, 5-cyclopropyl-2-((3-(4-fluorophenyl)-1-methyl-1H-indol-5-yl)amino)nicotinic acid] | 10 to 100 nM
5 | Cc1ccccc1-c1cc(Nc2ncc(C3CC3)cc2C(=O)O)cc2ccn(C)c12 [Example 476, 5-cyclopropyl-2-((1-methyl-7-(o-tolyl)-1H-indol-5-yl)amino)nicotinic acid] | ≤ 10 nM
6 | O=C(O)c1cc(Cl)ccc1Nc1ccc2c(ccn2-c2ccccn2)c1 [Example 311, 5-chloro-2-((1-(pyridin-2-yl)-1H-indol-5-yl)amino)benzoic acid] | ≤ 10 nM
7 | O=C(O)c1cc(C2CC2)cnc1Nc1cccc2c(-c3ccccc3)ccnc12 [Example 187, 5-cyclopropyl-2-((4-phenylquinolin-8-yl)amino)nicotinic acid] | ≤ 10 nM
8 | O=C(O)c1cc(Cl)ccc1Nc1ccc2c(ccn2Cc2cccnc2)c1 [Example 349, 5-chloro-2-((1-(pyridin-3-ylmethyl)-1H-indol-5-yl)amino)benzoic acid] | 100 to 1000 nM
9 | Cc1ccc(-c2cc(Nc3ncc(C4CC4)cc3C(=O)O)cc3ccn(C)c23)cc1 [Example 478, 5-cyclopropyl-2-((1-methyl-7-(p-tolyl)-1H-indol-5-yl)amino)nicotinic acid] | ≤ 10 nM
10 | Cn1ccc2cc(Nc3ncc(C4CC4)cc3C(=O)O)cc(C3=CCCCC3)c21 [Example 504] | ≤ 10 nM
11 | Cc1cc(Nc2ncc(C3CC3)cc2C(=O)O)cc2ccn(Cc3ccccc3)c12 [Example 629, 2-((1-benzyl-7-methyl-1H-indol-5-yl)amino)-5-cyclopropylnicotinic acid] | ≤ 10 nM
12 | Cn1ccc2cc(Nc3ncc(C4CC4)cc3C(=O)O)cc(-c3cc(F)ccc3F)c21 [Example 590, 5-cyclopropyl-2-((7-(2,5-difluorophenyl)-1-methyl-1H-indol-5-yl)amino)nicotinic acid] | ≤ 10 nM
13 | O=C(O)c1cc(Cl)ccc1Nc1ccc2c(ccn2-c2cnccn2)c1 [Example 313, 5-chloro-2-((1-(pyrazin-2-yl)-1H-indol-5-yl)amino)benzoic acid] | 100 to 1000 nM
14 | O=C(O)c1cc(C2CC2)cnc1Nc1ccc2c(c1)CCCN2Cc1ccccc1 [Example 183, 2-((1-benzyl-1,2,3,4-tetrahydroquinolin-6-yl)amino)-5-cyclopropylnicotinic acid] | 10 to 100 nM
15 | CCOCCCc1cc(Nc2ncc(C3CC3)cc2C(=O)O)cc2ccn(C)c12 [Example 603, 5-cyclopropyl-2-((7-(3-ethoxypropyl)-1-methyl-1H-indol-5-yl)amino)nicotinic acid] | 10 to 100 nM
16 | COc1ccc(Cn2ccc3cc(Nc4ncc(C5CC5)cc4C(=O)O)ccc32)cc1 [Example 623, 5-cyclopropyl-2-((1-(4-methoxybenzyl)-1H-indol-5-yl)amino)nicotinic acid] | 10 to 100 nM
17 | COC(=O)c1cc(C2CC2)cnc1Nc1ccc2c(c1)c(-c1cccc(C#N)c1)cn2C [Example 630] | 100 to 1000 nM
18 | O=C(O)c1cc(Cl)ccc1Nc1ccc2c(ccn2CC2CCCCC2)c1 [Example 257, 5-chloro-2-((1-(cyclohexylmethyl)-1H-indol-5-yl)amino)benzoic acid] | ≤ 10 nM
19 | CC(C)n1ccc2ccc(Nc3ncc(C4CC4)cc3C(=O)O)cc21 [Example 519, 5-cyclopropyl-2-((1-isopropyl-1H-indol-6-yl)amino)nicotinic acid] | 10 to 100 nM
20 | COc1cccc(-c2cn(C)c3ccc(Nc4ncc(C5CC5)cc4C(=O)O)cc23)c1 [Example 577, 5-cyclopropyl-2-((3-(3-methoxyphenyl)-1-methyl-1H-indol-5-yl)amino)nicotinic acid] | 100 to 1000 nM
21 | O=C(O)c1cc(C2CC2)cnc1Nc1cccc2c(=O)n(-c3ccccc3)cnc12 [Example 369, 5-cyclopropyl-2-((4-oxo-3-phenyl-3,4-dihydroquinazolin-8-yl)amino)nicotinic acid] | 100 to 1000 nM
22 | O=C(O)c1cc(C2CC2)cnc1Nc1cccc2ccccc12 [Example 371, 5-cyclopropyl-2-(naphthalen-1-ylamino)nicotinic acid] | 100 to 1000 nM

Row | Compound | IC50
23 | CC(C)Cn1ccc2cc(Nc3ncc(C4CC4)cc3C(=O)O)cnc21 [Example 547, 5-cyclopropyl-2-((1-isobutyl-1H-pyrrolo(2,3-b)pyridin-5-yl)amino)nicotinic acid] | 10 to 100 nM
24 | N#Cc1ccc(Cn2ccc3cc(Nc4ncc(C5CC5)cc4C(=O)O)ccc32)cc1 [Example 454, 2-((1-(4-cyanobenzyl)-1H-indol-5-yl)amino)-5-cyclopropylnicotinic acid] | 10 to 100 nM
25 | COc1cccc(-c2cc(Nc3ncc(C4CC4)cc3C(=O)O)cc3ccn(C)c23)c1 [Example 486, 5-cyclopropyl-2-((7-(3-methoxyphenyl)-1-methyl-1H-indol-5-yl)amino)nicotinic acid] | ≤ 10 nM
26 | COC/C=C/c1cccc(Cn2ccc3cc(Nc4ncc(C5CC5)cc4C(=O)O)ccc32)c1 [Example 508, (E)-5-cyclopropyl-2-((1-(3-(3-methoxyprop-1-en-1-yl)benzyl)-1H-indol-5-yl)amino)nicotinic acid] | ≤ 10 nM
27 | O=C(O)c1cc(C2CC2)cnc1Nc1ccc2ncnc(-c3ccccc3)c2c1 [Example 533, 5-cyclopropyl-2-((4-phenylquinazolin-6-yl)amino)nicotinic acid] | 100 to 1000 nM
28 | CCc1cc(Nc2ncc(C3CC3)cc2C(=O)O)cc2ccn(CC)c12 [Example 413, 5-cyclopropyl-2-((1,7-diethyl-1H-indol-5-yl)amino)nicotinic acid] | 10 to 100 nM
29 | O=C(O)c1cc(C2CC2)cnc1Nc1ccc2c(ccn2C(=O)C2CCCCC2)c1 [Example 583, 2-((1-(cyclohexylcarbonyl)-1H-indol-5-yl)amino)-5-cyclopropylnicotinic acid] | 10 to 100 nM
30 | O=C(O)c1cc(C2CC2)cnc1Nc1cccc2c1ccc(=O)n2-c1ccccc1 [Example 401, 5-cyclopropyl-2-((2-oxo-1-phenyl-1,2-dihydroquinolin-5-yl)amino)nicotinic acid] | 100 to 1000 nM
31 | COc1cnc(Nc2ccc3c(ccn3Cc3ccccc3)c2)c(C(=O)O)c1 [Example 132, 2-((1-benzyl-1H-indol-5-yl)amino)-5-methoxynicotinic acid] | 10 to 100 nM
32 | Cc1ccc(-c2cn(C)c3ccc(Nc4ncc(C5CC5)cc4C(=O)O)cc23)cc1 [Example 571, 5-cyclopropyl-2-((1-methyl-3-(4-methylphenyl)-1H-indol-5-yl)amino)nicotinic acid] | 10 to 100 nM
33 | O=C(O)c1cc(Cl)ccc1Nc1ccc2c(ccn2-c2cnc3ccccc3c2)c1 [Example 317, 5-chloro-2-((1-(quinolin-3-yl)-1H-indol-5-yl)amino)benzoic acid] | ≤ 10 nM
34 | O=C(O)c1cc(C2CC2)cnc1Nc1cnc2c(ccn2CC2CCCCC2)c1 [Example 549] | ≤ 10 nM
35 | CC(C)c1ccc(Nc2ccc3c(ccn3Cc3ccccc3)c2)c(C(=O)O)c1 [Example 114, 2-((1-benzyl-1H-indol-5-yl)amino)-5-isopropylbenzoic acid] | ≤ 10 nM
36 | O=C(O)c1cc(C2CC2)cnc1Nc1ccc2c(ccn2Cc2cccc(O)c2)c1 [Example 505, 5-cyclopropyl-2-((1-(3-hydroxybenzyl)-1H-indol-5-yl)amino)nicotinic acid] | ≤ 10 nM
37 | O=C(O)c1cc(C2CC2)cnc1Nc1ccc2cc(-c3ccccc3)ccc2c1 [Example 218, 5-cyclopropyl-2-((6-phenylnaphthalen-2-yl)amino)nicotinic acid] | 10 to 100 nM
38 | COc1ccc(-c2cn(C)c3ccc(Nc4ncc(C5CC5)cc4C(=O)O)cc23)cc1 [Example 579, 5-cyclopropyl-2-((3-(4-methoxyphenyl)-1-methyl-1H-indol-5-yl)amino)nicotinic acid] | 100 to 1000 nM
39 | Cn1ccc2cc(Nc3ncc(C4CC4)cc3C(=O)O)cc(-c3ccccc3OC(F)(F)F)c21 [Example 491, 5-cyclopropyl-2-((1-methyl-7-(2-(trifluoromethoxy)phenyl)-1H-indol-5-yl)amino)nicotinic acid] | ≤ 10 nM
40 | O=C(O)c1cc(Cl)ccc1Nc1ccc2c(c1)c(Cc1ccccc1)cn2Cc1ccccc1 [Example 88, 5-chloro-2-((1,3-dibenzyl-1H-indol-5-yl)amino)benzoic acid] | 10 to 100 nM
41 | O=C(O)c1cc(-c2ccccc2)ccc1Nc1ccc2c(ccn2Cc2ccccc2)c1 [Example 359, 4-((1-Benzyl-1H-indol-5-yl)amino)-[1,1′-biphenyl]-3-carboxylic acid] | 10 to 100 nM
42 | Cc1cn(CC(C)C)c2ccc(Nc3ncc(C4CC4)cc3C(=O)O)cc12 [Example 535, 5-cyclopropyl-2-((1-isobutyl-3-methyl-1H-indol-5-yl)amino)nicotinic acid] | ≤ 10 nM
43 | CC(C)Cn1ccc2ccc(Nc3ncc(C4CC4)cc3C(=O)O)cc21 [Example 521, 5-cyclopropyl-2-((1-isobutyl-1H-indol-6-yl)amino)nicotinic acid] | ≤ 10 nM
44 | Cn1cc(C2CC2)c2cc(Nc3ncc(C4CC4)cc3C(=O)O)ccc21 [Example 393, 5-cyclopropyl-2-((3-cyclopropyl-1-methyl-1H-indol-5-yl)amino)nicotinic acid] | 10 to 100 nM
